Tests used:
[1] = test system: Euschistus heros (neotropical brown stink bug); experiment: Example B6: Euschistus heros, sprayed soybean leaf; assay type: in vivo; conditions: 120 h, application rate 200 ppm, N-2 nymphs, 5 days after infestation
Source text: Soybean leaf on agar in 24-well microtiter plates were sprayed with aqueous test solutions prepared from 10,000 ppm DMSO stock solutions. After drying the leaf were infested with N-2 nymphs.

[2] = test system: Myzus persicae (green peach aphid); experiment: Example B5: Myzus persicae, sprayed sunflower leaf discs; assay type: in vivo; conditions: foliar, 144 h, application rate 200 ppm, aphid population of mixed ages, 6 days after infestation
Experimental: Sunflower leaf discs were placed on agar in a 24-well microtiter plate and sprayed with aqueous test solutions prepared from 10,000 ppm DMSO stock solutions. After drying, the leaf discs were infested with an aphid population of mixed ages. The samples were assessed for mortality 6 days after infestation.

[3] = test system: Spodoptera littoralis (Egyptian cotton leaf worm); experiment: Example B1: Spodoptera littoralis, sprayed cotton leaf discs; assay type: in vivo; conditions: foliar, 72 h, application rate 200 ppm, L1 larvae, 3 days after infestation, read-out: control in at least one of the three categories (mortality, anti-feedancy or growth inhibition)
Experimental: Cotton leaf discs were placed on agar in 24-well microtiter plates and sprayed with aqueous test solutions prepared from 10,000 ppm DMSO stock solutions. After drying the leaf discs were infested with five L1 larvae. The samples were assessed for mortality, anti-feedant effect, and growth inhibition in comparison to untreated samples 3 days after infestation. Control of Spodoptera littoralis by a test sample is when at least one of mortality, anti-feedant effect, and growth inhibition is higher than the untreated sample.

[4] = test system: Plutella xylostella (diamond back moth); experiment: Example B3: Plutella xylostella, treated artificial diet; assay type: in vivo; conditions: 120 h, application rate 200 ppm, L2 larvae, 5 days after infestation, read-out: effect in at least one of the two categories (mortality or growth inhibition)
Experimental: (§1) 24-well microtiter plates with artificial diet were treated with aqueous test solutions prepared from 10,000 ppm DMSO stock solutions by pipetting. After drying, the plates were infested with L2 larvae (10 to 15 per well). The samples were assessed for mortality and growth inhibition in comparison to untreated samples 5 days after infestation.

[5] = test system: Diabrotica balteata (corn root worm); experiment: Example B4: Diabrotica balteata, sprayed maize sprouts; assay type: in vivo; conditions: 96 h, application rate 200 ppm, L2 larvae, 4 days after infestation, read-out: effect in at least one of the two categories (mortality or growth inhibition)
Experimental: as §1, with “Maize sprouts, placed on an agar layer in 24-well” for “24-well”, “plates” for “plates with artificial diet”, “spraying.” for “pipetting.”, “(6” for “(10”, “10” for “15”, “4” for “5”

[6] = test system: Spodoptera littoralis (Egyptian cotton leaf worm); experiment: Example B2: Spodoptera littoralis, systemic test via lettuce roots in agar; assay type: in vivo; conditions: 144 h, application rate 12.5 ppm, Spodoptera eggs, 6 days after infestation, read-out: control in at least one of the three categories (mortality, anti-feedancy or growth inhibition)
Source text: Test compounds were applied by pipette from 10,000 ppm DMSO stock solutions into 24-well plates and mixed with agar. Lettuce seeds were placed on the agar and the multi well plate was closed by another plate which contains also agar. After 7 days the roots have absorbed the compound and the lettuce has grown into the lid plate. The lettuce leafs were now cut off into the lid plate. Spodoptera eggs were pipetted through a plastic stencil on a humid gel blotting paper and the plate closed with it. The samples were assessed for mortality, anti-feedant effect and growth inhibition in comparison to untreated samples 6 days after infestation.
The following compounds gave an effect of at least 80% control in at least one of the three categories (mortality, anti-feedancy or growth inhibition) at an application rate of 12.5 ppm: P2, P3, P8, P9, P11 and P17, P19, P20, P22, P23, P25, P26, P28, P30, P31, P32, P33, P40, P42, P43, P44, P45, P46, P47, P48, P49, P50, P51, P52, P53, P54, P60 and P61.

[7] = test system: Tetranychus urticae (two-spotted spider mite); experiment: Example B8: Tetranychus urticae, sprayed bean leaf discs; assay type: in vivo; conditions: foliar, 192 h, application rate 200 ppm, mixed population (mobile stages), 8 days after infestation
Source text: Bean leaf discs on agar in 24-well microtiter plates were sprayed with aqueous test solutions prepared from 10,000 ppm DMSO stock solutions. After drying the leaf discs were infested with a mite population of mixed ages.

[8] = test system: Myzus persicae (green peach aphid); experiment: Example B7: Myzus persicae, systemic test with roots of pea seedlings in test solution; assay type: in vivo; conditions: 144 h, test rate 24 ppm, aphid population of mixed ages, 6 days
Source text: Roots of pea seedlings infested with an aphid population of mixed ages were placed directly in the aqueous test solutions prepared from 10,000 DMSO stock solutions.

[9] = test system: Bemisia tabaci (cotton white fly); experiment: Example B10: Bemisia tabaci, sprayed cotton leaf discs; assay type: in vivo; conditions: foliar, 144 h, application rate 200 ppm, adult white flies, 6 days after incubation
Experimental: Cotton leaf discs were placed on agar in 24-well microtiter plates and sprayed with aqueous test solutions prepared from 10,000 ppm DMSO stock solutions. After drying the leaf discs were infested with adult white flies. The samples were checked for mortality 6 days after incubation.

melting point [°C] | SMILES | mortality at 200 ppm [1] [%] | mortality at 200 ppm [2] [%] | percent control (mortality, anti-feedant effect or growth inhibition) at 200 ppm [3] [%] | percent effect (mortality or growth inhibition) at 200 ppm [4] [%] | percent effect (mortality or growth inhibition) at 200 ppm [5] [%] | percent control (mortality, anti-feedant effect or growth inhibition) at 12.5 ppm [6] [%] | mortality at 200 ppm [7] [%] | mortality at 24 ppm [8] [%] | mortality at 200 ppm [9] [%]
147 to 148 | CCSc1cc(-c2ccc(Cl)cc2)cnc1C(=O)/N=c1\sc(C(F)(F)F)nn1C | – | – | – | – | – | – | – | – | –
219 to 221 | CCSc1cc(-n2ccc(C(F)(F)F)n2)cnc1C(=O)/N=c1\sc(C(F)(F)C(F)(F)F)nn1C | – | – | – | – | – | – | – | – | –
173 to 175 | CCSc1cc(-c2ccc(C(F)(F)F)cc2)cnc1C(=O)/N=c1\sc(C(F)(F)C(F)(F)F)nn1C | – | – | – | – | – | – | – | – | –
140 to 142 | CCS(=O)(=O)c1cc(-c2ccc(C(F)(F)F)cc2)ccc1C(=O)/N=c1\sc(C(F)(F)F)nn1C | – | – | – | – | – | – | – | – | –
184 to 186 | CCS(=O)(=O)c1cc(-c2cccc(Cl)c2)cnc1C(=O)/N=c1\sc(C(F)(F)F)nn1C | – | – | – | – | – | – | – | – | –
– | CCS(=O)(=O)c1cc(-c2ccc(Cl)cc2)cnc1C(=O)/N=c1\sc(C(F)(F)F)nn1C [Compound P2, (N)-5-(4-chlorophenyl)-3-ethylsulfonyl-N-[3-methyl-5-(trifluoromethyl)-1,3,4-thiadiazol-2-ylidene]pyridine-2-carboxamide] | ≥ 80 | ≥ 80 | ≥ 80 | ≥ 80 | ≥ 80 | ≥ 80 | – | – | –
– | CCS(=O)(=O)c1cc(-c2ccc(C(F)(F)F)cc2)cnc1C(=O)/N=c1\sc(C(F)(F)C(F)(F)F)nn1C [Compound P8] | ≥ 80 | ≥ 80 | ≥ 80 | ≥ 80 | ≥ 80 | ≥ 80 | ≥ 80 | – | –
– | CCS(=O)(=O)c1cc(-c2ccc(Cl)cc2)cnc1C(=O)/N=c1\sc(C(F)(F)C(F)(F)F)nn1C [Compound P11] | ≥ 80 | ≥ 80 | ≥ 80 | ≥ 80 | ≥ 80 | ≥ 80 | – | – | –
– | CCS(=O)(=O)c1cc(-c2ncccn2)cnc1C(=O)/N=c1\ccc(SC(F)(F)F)cn1C [Compound P17, (N)-3-ethylsulfonyl-N-[1-methyl-5-(trifluoromethylsulfanyl)-2-pyridylidene]-5-pyrimidin-2-yl-pyridine-2-carboxamide] | ≥ 80 | ≥ 80 | ≥ 80 | ≥ 80 | ≥ 80 | ≥ 80 | – | ≥ 80 | –
– | CCS(=O)(=O)c1cc(C2(C#N)CC2)cnc1C(=O)/N=c1\sc(C(F)(F)F)nn1C [Compound P19] | ≥ 80 | ≥ 80 | ≥ 80 | ≥ 80 | ≥ 80 | ≥ 80 | – | – | –
– | CCS(=O)(=O)c1cc(-c2cccc3c2OC(F)(F)O3)cnc1C(=O)/N=c1\sc(C(F)(F)F)nn1C [Compound P29] | ≥ 80 | – | ≥ 80 | ≥ 80 | ≥ 80 | – | ≥ 80 | – | –
– | CCS(=O)(=O)c1cc(-c2cccc(OC(F)(F)F)c2)cnc1C(=O)/N=c1\sc(C(F)(F)F)nn1C [Compound P31] | – | – | ≥ 80 | ≥ 80 | ≥ 80 | ≥ 80 | ≥ 80 | – | –
– | CCS(=O)(=O)c1cc(-c2cncs2)cnc1C(=O)/N=c1\sc(C(F)(F)F)nn1C [Compound P39] | – | – | ≥ 80 | – | ≥ 80 | – | – | – | ≥ 80
– | CCS(=O)(=O)c1cc(-c2nccc(C(F)(F)F)n2)cnc1C(=O)/N=c1\sc(C(F)(F)F)nn1C [Compound P40] | ≥ 80 | ≥ 80 | ≥ 80 | ≥ 80 | ≥ 80 | ≥ 80 | – | – | –
– | CCS(=O)(=O)c1cc(-c2ncccn2)cnc1C(=O)/N=c1\sc(C(F)(F)F)nn1C [Compound P42] | ≥ 80 | ≥ 80 | ≥ 80 | ≥ 80 | ≥ 80 | ≥ 80 | – | ≥ 80 | –
– | CCS(=O)(=O)c1cc(-c2ccc(Cl)c(Cl)n2)cnc1C(=O)/N=c1\sc(C(F)(F)F)nn1C [Compound P45] | ≥ 80 | ≥ 80 | ≥ 80 | ≥ 80 | ≥ 80 | ≥ 80 | ≥ 80 | – | –
– | CCS(=O)(=O)c1cc(-c2ncc(Cl)cc2Cl)cnc1C(=O)/N=c1\sc(C(F)(F)F)nn1C [Compound P46] | ≥ 80 | ≥ 80 | ≥ 80 | ≥ 80 | ≥ 80 | ≥ 80 | – | – | –
– | CCS(=O)(=O)c1cc(-c2ccccn2)cnc1C(=O)/N=c1\sc(C(F)(F)F)nn1C [Compound P51] | ≥ 80 | ≥ 80 | ≥ 80 | ≥ 80 | ≥ 80 | ≥ 80 | – | – | –
– | CCS(=O)(=O)c1cc(-c2ccnc(F)c2)cnc1C(=O)/N=c1\sc(C(F)(F)F)nn1C [Compound P54] | ≥ 80 | ≥ 80 | ≥ 80 | ≥ 80 | ≥ 80 | ≥ 80 | – | – | –
– | CCS(=O)(=O)c1cc(C2CC2)cnc1C(=O)/N=c1\sc(C(F)(F)F)nn1C [Compound P63] | ≥ 80 | ≥ 80 | ≥ 80 | ≥ 80 | ≥ 80 | – | – | ≥ 80 | –
– | CCS(=O)(=O)c1cc(-c2cc(C(F)(F)F)ccn2)cnc1C(=O)/N=c1\sc(C(F)(F)F)nn1C [Compound P70] | – | – | ≥ 80 | ≥ 80 | ≥ 80 | – | ≥ 80 | – | –

Source: patent publication US10494366B2, “Pesticidally active amide heterocyclic derivatives with sulphur containing substituents” (Syngenta Participations AG, priority 2014, dated 2019)
